PubChem BioAssay (NCI)
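Five compound concentrations were applied to cells in 96-well plates for 48 hours; endpoints were derived by simple linear interpolation of the resulting dose-response curve. GI50 marks 50% less growth. TGI marks complete inhibition of growth.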

Tests used:
Test in all cases: NCI tumour cell line growth inhibition, 48 h
HOP-92 NSCLC = test system: HOP-92 NSCLC
A549 NSCLC = test system: A549 NSCLC
U251 CNS = test system: U251 CNS
RPMI-8226 leukemia = test system: RPMI-8226 leukemia
SK-MEL-5 melanoma = test system: SK-MEL-5 melanoma
OVCAR-4 ovarian = test system: OVCAR-4 ovarian
IGROV1 ovarian = test system: IGROV1 ovarian
SN12C renal = test system: SN12C renal
MDA-MB-231 breast = test system: MDA-MB-231 breast
K-562 leukemia = test system: K-562 leukemia

Compound | TGI (HOP-92 NSCLC) [µM] | TGI (A549 NSCLC) [µM] | TGI (U251 CNS) [µM] | TGI (RPMI-8226 leukemia) [µM] | TGI (SK-MEL-5 melanoma) [µM] | TGI (OVCAR-4 ovarian) [µM] | TGI (IGROV1 ovarian) [µM] | TGI (SN12C renal) [µM] | GI50 (A549 NSCLC) [µM] | GI50 (U251 CNS) [µM] | GI50 (MDA-MB-231 breast) [µM] | TGI (MDA-MB-231 breast) [µM] | GI50 (RPMI-8226 leukemia) [µM] | GI50 (K-562 leukemia) [µM] | TGI (K-562 leukemia) [µM] | GI50 (SK-MEL-5 melanoma) [µM] | GI50 (OVCAR-4 ovarian) [µM] | GI50 (IGROV1 ovarian) [µM] | GI50 (SN12C renal) [µM]
O=C(CC1Sc2ccccc2NC1=O)Nc1ccc([N+](=O)[O-])cc1[N+](=O)[O-] (stereo not given) | 31.3 | 88.7 | 30.3 | 32.3 | 33.4 | 52.6 | 39.1 | 29.7 | – | – | – | – | – | – | – | – | – | – | –
O=C(CCCCCn1c2ccccc2c2c3c(c4c5ccccc5[nH]c4c21)C(=O)N(O)C3=O)N1CCOCC1 | – | 24 | 5.59 | 5.43 | 3.06 | > 100 | 4.92 | > 100 | 4.22 | 2.26 | 2.16 | 5.87 | 1.97 | 2.11 | 6.23 | 1.64 | 3.57 | 2.16 | 3.37
CC(=O)OC1CC[C@@]2(C)C(CC(OC3OC(CO)C(O)C(O)C3O)[C@]3(C)C2CCC24CC23CC[C@H]4C(C)CC(O)[C@@H](O)C(C)(C)O)C1(C)C (stereo not given in full) | 19.5 | > 50 | 17.4 | 24.8 | 15.9 | > 50 | 22.1 | 30.7 | – | – | – | – | – | – | 43.4 | – | – | – | –
Cc1cccc2c1NC(c1c(C)[nH]c3ccccc13)C2 (stereo not given) | 17.2 | > 100 | > 100 | > 100 | > 100 | – | > 100 | > 100 | – | – | – | – | – | – | > 100 | – | – | – | –
COc1ccc(/C=N\N2C(=O)Cc3ccccc32)cc1 | 85.5 | > 100 | > 100 | > 100 | > 100 | > 100 | > 100 | – | – | – | – | – | – | – | > 100 | – | – | – | –
CC(=O)O/N=C1\C=Cc2c(no[n+]2[O-])C1=O | – | 31.1 | – | 62 | 31.6 | 31.5 | 30.3 | 32.9 | – | – | – | 34.4 | – | – | > 100 | – | – | – | –
NC(N)=Nc1nc2cc(N)ccc2o1 | > 100 | > 100 | > 100 | – | – | > 100 | – | > 100 | – | – | – | – | – | – | > 100 | – | – | – | –
COc1cc(Oc2cnc3cc(N)cc(N)c3n2)cc(OC)c1OC | – | > 100 | > 100 | 45 | > 100 | > 100 | > 100 | > 100 | > 100 | > 100 | 29.4 | 95.8 | 21.9 | 38.1 | > 100 | 39.5 | 37.3 | 32.8 | 71.2
N#CC1(Cc2ccccc2Cl)c2ccccc2C=CN1C(=O)c1ccccc1 (stereo not given) | > 100 | > 100 | > 100 | > 100 | > 100 | – | > 100 | > 100 | – | – | – | – | – | – | > 100 | – | – | – | –
COC(=O)c1nc(N)[nH]c(=O)c1-c1ccc(Cl)cc1 | > 100 | > 100 | > 100 | > 100 | > 100 | > 100 | > 100 | > 100 | – | – | – | – | – | – | > 100 | – | – | – | –
